Source: patent US10738028B2, “Spiro three-membered ring, spiro five-membered ring peptide deformylase inhibitor and use thereof in antibacteria and anti-tumor” (priority 2016, dated 2020)

Experiments:
Assay type in all cases: cell-based
[1] = test system: Enterococcus faecalis (EFA); test: MIC, two-fold agar dilution (CLSI), clinical isolates
Summary of the method: (§1)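 Susceptibility was tested using CLSI two-fold agar dilution against the strains examined.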

[2] = test system: Enterococcus faecium (EFM); test: as above
Summary of the method: as §1

[3] = test system: Escherichia coli (including ESBLs, non-ESBLs); test: as above
Summary of the method: as §1

[4] = test system: Moraxella catarrhalis (BCA); test: as above
Summary of the method: as §1

[5] = test system: Streptococcus pneoumoniae (SPN); test: as above
Summary of the method: as §1

[6] = test system: methicillin-resistant Staphylococcus aureus (MRSA); test: as above
Summary of the method: as §1

[7] = test system: methicillin-resistant Staphylococcus epidermidis (MRSE); test: as above
Summary of the method: as §1

[8] = test system: methicillin-sensitive Staphylococcus aureus (MSSA); test: as above
Summary of the method: as §1

[9] = test system: methicillin-sensitive Staphylococcus epidermidis (MSSE); test: as above
Summary of the method: as §1

[10] = test system: HCT-116 colorectal cancer cell line; test: CCK-8 proliferation inhibition; settings: concentration of 30 μM; 72 hours; CCK-8; 30 µM
Summary of the method: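 2000 cells/well, McCoy's 5A + 10% newborn bovine serum; overnight attach, 37° C./5% CO2. Cpd from DMSO stock diluted in medium, 72 h. Readout: CCK-8 (1:10). Ctrl 1‰ DMSO.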

[11] = test system: A549 lung cancer cell line; test: CCK-8 proliferation inhibition; settings: concentration of 30 μM
Summary of the method: (§2)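 Plating at 2000 cells/well, then incubation overnight at 37° C. Next, a range of compound concentrations for 72 hours (control 1‰ DMSO). Finally, medium decanted and CCK-8 diluted 1:10 added.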

[12] = test system: BEL-7402 liver cancer cell line; test: CCK-8 proliferation inhibition; settings: concentration of 30 μM, 72 hours, 30 µM
Summary of the method: as §2

[13] = test system: MGC-803 gastric cancer cell line; test: CCK-8 proliferation inhibition; settings: concentration of 30 μM, 72 hours, 30 µM
Summary of the method: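 CCK-8 read-out after 72 h drug exposure; 2000 cells/well, overnight pre-culture (37° C, 5% CO2); vehicle 1‰ DMSO. Media: PC3 F12; MGC-803/Jurkat 1640; MCF-7 DMEM high glucose; all +10% newborn bovine serum, 1% antibiotics.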

With `Cc1cnc(NC(=O)[C@@H]2CC3(CC3)CN2C(=O)[C@@H](CC(=O)NO)CC2CCCC2)s1` [Example 65] the Anti-bacterial activity (MIC), strain EFA 15-1 ([1]; clinical isolate EFA 15-1) was 32 µg/mL, the Anti-bacterial activity (MIC), strain EFA 15-2 ([1]; clinical isolate EFA 15-2) was 32 µg/mL and the Anti-bacterial activity (MIC), strain EFA 15-3 ([1]; clinical isolate EFA 15-3) was 32 µg/mL. It also gave an Anti-bacterial activity (MIC), strain EFA 15-4 ([1]; clinical isolate EFA 15-4) of 32 µg/mL, an Anti-bacterial activity (MIC), strain EFA 15-5 ([1]; clinical isolate EFA 15-5) of 32 µg/mL and an Anti-bacterial activity (MIC), strain EFA 15-6 ([1]; clinical isolate EFA 15-6) greater than 32 µg/mL. It also gave an Anti-bacterial activity (MIC), strain EFA 15-9 ([1]; clinical isolate EFA 15-9) of 4 µg/mL, an Anti-bacterial activity (MIC), strain EFM 15-1 ([2]; clinical isolate EFM 15-1) greater than 32 µg/mL and an Anti-bacterial activity (MIC), strain EFM 15-2 ([2]; clinical isolate EFM 15-2) greater than 32 µg/mL. The Anti-bacterial activity (MIC), strain EFM 15-3 ([2]; clinical isolate EFM 15-3) was greater than 32 µg/mL, the Anti-bacterial activity (MIC), strain EFM 15-4 ([2]; clinical isolate EFM 15-4) was 0.25 µg/mL and the Anti-bacterial activity (MIC), strain EFM 15-5 ([2]; clinical isolate EFM 15-5) was 0.125 µg/mL. It also gave an Anti-bacterial activity (MIC), strain EFM 15-6 ([2]; clinical isolate EFM 15-6) of 1 µg/mL, an Anti-bacterial activity (MIC), strain ECO+ 15-1 ([3]; clinical isolate ECO+ 15-1) of 8 µg/mL and an Anti-bacterial activity (MIC), strain ECO+ 15-2 ([3]; clinical isolate ECO+ 15-2) of 8 µg/mL. It also gave an Anti-bacterial activity (MIC), strain ECO+ 15-3 ([3]; clinical isolate ECO+ 15-3) of 16 µg/mL, an Anti-bacterial activity (MIC), strain ECO+ 15-4 ([3]; clinical isolate ECO+ 15-4) of 16 µg/mL and an Anti-bacterial activity (MIC), strain ECO− 15-1 ([3]; clinical isolate ECO− 15-1) of 8 µg/mL. It also gave an Anti-bacterial activity (MIC), strain ECO− 15-2 ([3]; clinical isolate ECO− 15-2) of 16 µg/mL, an Anti-bacterial activity (MIC), strain ECO− 15-3 ([3]; clinical isolate ECO− 15-3) of 16 µg/mL and an Anti-bacterial activity (MIC), strain ECO− 15-4 ([3]; clinical isolate ECO− 15-4) of 8 µg/mL. The Anti-bacterial activity (MIC), strain BCA 14-1 ([4]; clinical isolate BCA 14-1) was 0.5 µg/mL, the Anti-bacterial activity (MIC), strain BCA 14-4 ([4]; clinical isolate BCA 14-4) was 0.5 µg/mL and the Anti-bacterial activity (MIC), strain BCA 14-5 ([4]; clinical isolate BCA 14-5) was 0.125 µg/mL. The Anti-bacterial activity (MIC), strain BCA 14-6 ([4]; clinical isolate BCA 14-6) was 0.125 µg/mL, the Anti-bacterial activity (MIC), strain BCA 14-7 ([4]; clinical isolate BCA 14-7) was 0.5 µg/mL and the Anti-bacterial activity (MIC), strain BCA 14-8 ([4]; clinical isolate BCA 14-8) was 0.5 µg/mL. The Anti-bacterial activity (MIC), strain BCA 14-10 ([4]; clinical isolate BCA 14-10) was 0.125 µg/mL, the Anti-bacterial activity (MIC), strain SPN 16-2 ([5]; clinical isolate SPN 16-2) was 0.125 µg/mL and the Anti-bacterial activity (MIC), strain SPN 16-4 ([5]; clinical isolate SPN 16-4) was 0.06 µg/mL. It also gave an Anti-bacterial activity (MIC), strain MRSA 15-1 ([6]; clinical isolate MRSA 15-1) of 0.06 µg/mL, an Anti-bacterial activity (MIC), strain MRSA 15-2 ([6]; clinical isolate MRSA 15-2) of 0.125 µg/mL and an Anti-bacterial activity (MIC), strain MRSA 15-3 ([6]; clinical isolate MRSA 15-3) of 0.06 µg/mL. For the same molecule, the Anti-bacterial activity (MIC), strain MRSA 15-4 ([6]; clinical isolate MRSA 15-4) was 0.125 µg/mL, the Anti-bacterial activity (MIC), strain MRSE 15-1 ([7]; clinical isolate MRSE 15-1) was 0.015 µg/mL and the Anti-bacterial activity (MIC), strain MRSE 15-2 ([7]; clinical isolate MRSE 15-2) was 0.125 µg/mL. It also gave an Anti-bacterial activity (MIC), strain MRSE 15-3 ([7]; clinical isolate MRSE 15-3) of 0.125 µg/mL, an Anti-bacterial activity (MIC), strain MRSE 15-7 ([7]; clinical isolate MRSE 15-7) of 0.125 µg/mL and an Anti-bacterial activity (MIC), strain MSSA 15-3 ([8]; clinical isolate MSSA 15-3) of 0.125 µg/mL. The Anti-bacterial activity (MIC), strain MSSA 15-4 ([8]; clinical isolate MSSA 15-4) was 0.015 µg/mL, the Anti-bacterial activity (MIC), strain MSSA 15-5 ([8]; clinical isolate MSSA 15-5) was 0.015 µg/mL and the Anti-bacterial activity (MIC), strain MSSA 15-6 ([8]; clinical isolate MSSA 15-6) was 16 µg/mL. It also gave an Anti-bacterial activity (MIC), strain MSSE 15-4 ([9]; clinical isolate MSSE 15-4) of 0.125 µg/mL, an Anti-bacterial activity (MIC), strain MSSE 15-5 ([9]; clinical isolate MSSE 15-5) of 0.06 µg/mL and an Anti-bacterial activity (MIC), strain MSSE 15-6 ([9]; clinical isolate MSSE 15-6) of 0.015 µg/mL. For the same molecule, the HCT116 inhibition rate/% [10] was 83%, the inhibition at 30 µM ([11]; Homo sapiens, A549, 72 h) was greater than 50% and the “Inhibition of proliferation, Lung cancer A549” value ([11]; 72 hours, 30 µM) was 67%. For the same molecule, the “Inhibition of proliferation, Liver cancer BEL-7402” value [12] was 81% and the “Inhibition of proliferation, Gastric cancer MGC-803” value [13] was 72%.
